# Reference: US20210322509A1, “Methods for Reducing Perinatal Morbidity and / or Mortality” (CHU SAINTE-JUSTINE, priority 2016, published 2021)
# Non-standard residues stand in square brackets, D forms with d. Residues, ends and D or L forms follow the SMILES beside them. ξ: configuration not given here. dThr(3ξ) = CC(O)[C@@H](N)C(=O)O
# What was measured:
# [1] = tested on: IL-1β, IL-6, IL-8 and PGF2α in neonatal intestines; assay: ELISA of pro-inflammatory mediators in intestines of neonates; type: in vivo, mice; conditions: neonates from IL-1β-treated dams; for levels of gut IL-6: relative to control
# Description: FIGS. 5A to 5D show the levels of the pro-inflammatory mediators IL-1p (FIG. 5A), IL-6 (FIG. 5B), IL-8 (FIG. 5C) and PGF2a (FIG. 5D) in the intestines of neonates from sham and IL-1β-treated dams administered with vehicle, Compound 1 or Kineret, as assessed by ELISA. One-way ANOVA compared to IL-1β+Veh. *p<0.05. n=4 pups in each groups.
# (§1) Murine ELISA assays. The ELISA assay was performed using mouse Quantikine™ ELISA kits against IL-1β or IL-6 (R&D Systems®; #MLBOOC, M6000B), IL-8 and PGF2α (MyBioSource®; #MBS261967, #MBS264160) according to the manufacturer's instructions. Briefly, tissues (lungs, intestines and brains) collected at birth were homogenized in RIPA buffer containing proteases and 50 μL of either lung, intestine, or brain samples, recombinant mouse IL-1β, IL-6, IL-8 or PGF2α positive control or decreasing concentrations of a recombinant mouse IL-1β, IL-6, IL-8 or PGF2α standard were loaded into a 96-well plate pre-coated with a monoclonal anti-mouse IL-1β antibody and incubated for 2 hours at ambient temperature. Wells were washed 5 times and incubated with an enzyme-linked mouse polyclonal antibody specific to murine IL-1β for 2 hours. After another washing step, a substrate solution was added. The enzymatic reaction was stopped after 30 minutes and the plate was read at 450 nm, with wavelength correction set to 570 nm.
# [2] = tested on: timed-pregnant CD-1 mice exposed to IL-1β; assay: Intrauterine IL-1β-induced perinatal inflammation model: neonatal survival and fetal growth; type: in vivo; conditions: for neonatal survival at birth: pups from IL-1β-treated dams (1 μg i.u., G16.5), compound 1 1 mg/Kg/12 h or Kineret 4 mg/Kg/12 h s.c., relative to vehicle
# Description: Timed-pregnant CD-1 mice were exposed to 1 μg of IL-1β at 16.5 days of gestation (G16.5). Compound 1 (Cmpd 1), Kineret or vehicle was injected subcutaneously in the neck skin 30 minutes before stimulation with IL-1β, and mice delivery was assessed every hour until term (G19-G19.5).
# One-way ANOVA compared to IL-1β+Veh. ***p<0.001. Control (n=9), sham (n=7), IL-1β (n=26), IL-1β+Compound 1 (n=22), IL-1β+Kin (n=11).
# Intrauterine […] perinatal inflammation model. Timed-pregnant CD-1 mice at 16.5 days of gestation were steadily anesthetized with an isoflurane mask. After body hair removal from the peritoneal area, a 1.5 cm-tall median incision was performed with surgical scissors in the lower abdominal wall. The lower segment of the right uterine horn was then exposed and 1 μg of IL-1β was injected between two fetal membranes with care of not entering the amniotic cavity. The abdominal muscle layer was sutured and the skin closed with clips. One hundred μL of Compound 1 (1 mg/Kg/12 h), Kineret® (4 mg/Kg/12 h) or vehicle (sterile water) was injected subcutaneously in the neck 30 minutes before stimulation with IL-1β (to allow distribution of drugs to target tissues). Mice delivery was assessed every hour until term (G19-G19.5). Immediately after delivery, neonatal survival was assessed. Some pregnant mice were sacrificed before birth (24 h after the surgery) to either 1) perform caesarean section and photograph fetuses; 2) collect amniotic fluids; and 3) collect placentas. Only tissues and fluids from gestational sacs closer to the cervical end of the uterus were collected to ensure proximity with the IL-1β injection site. Tissues and fluids were snap-frozen in liquid nitrogen and kept at −80° C. for subsequent RNA purification or protein quantification by ELISA.
# [3] = tested on: intestines of pups from IL-1β-treated dams; assay: Histology of ileum and colon (crypts, resident lymph nodes); type: in vivo, mice; conditions: for atrophies in intestinal crypts of the ileum: histology; for number of resident lymph nodes in the colon / size of resident lymph nodes in the colon: relative to vehicle
# Description: FIG. 6A to 6D show representative histological analyses of the ileum of neonates from sham (FIG. 6A) and IL-1β-treated dams administered with vehicle (FIG. 6B), Compound 1 (FIG. 6C) or Kineret (FIG. 6D). Arrows indicate crypts. Scale, […].
# FIGS. 7A and 7B show the number and size, respectively, of resident lymph nodes in the colon of neonates from sham and IL-1β-treated dams administered with vehicle, Compound 1 or Kineret. Sham (n=6 pups), IL-1β (n=3 pups), IL-1β+Compound 1 (n=6 pups), IL-1β+Kin (n=8 pups).
# (§2) Histology. Intestines (from ileum to rectum) and lungs of post-term (PT) 15 mice were collected and fixed in 10% formalin during >48 h and were coated in paraffin. Samples were cut with a microtome (thickness=[…]) and mounted on lamella. Intestines were colored using hematoxylin-phloxine-saffron (HPS), whereas lungs were colored using H&E. Images were taken with a slidescanner (Axioscan®). Quantification of images was performed under blind evaluation of groups using Zen2 software.
# Potential damages to the ileum and in the colon were evaluated by histologic analyses. In the ileum, pups from IL-1β-treated dams administered with vehicle had consistent atrophies in their intestinal crypts (FIG. 6B), and this was not observed following administration of compound 1 (FIG. 6C) or Kineret® (FIG. 6D). In the colon, the number of resident lymph nodes per cm, and their size, were measured. Since lymph nodes are part of the innate immunity and play an important role in the immune surveillance of the colon, the number and size of resident lymph nodes is a marker of the immune integrity/health of the intestine.
# [4] = tested on: IL-1β, IL-6, IL-8 and PGF2α in neonatal lungs; assay: ELISA of pro-inflammatory mediators in lungs of neonates; type: in vivo, mice; conditions: neonates from IL-1β-treated dams; tissue collected at birth
# Description: FIGS. 3A to 3D show the levels of the pro-inflammatory mediators IL-1p (FIG. 3A), IL-6 (FIG. 3B), IL-8 (FIG. 3C) and PGF2a (FIG. 3D) in the lungs of neonates from sham and IL-1β-treated dams administered with vehicle, Compound 1 or Kineret, as assessed by ELISA. One-way ANOVA compared to IL-1β+Veh. *p<0.05, **p<0.01. n=4 pups in each groups.
# as §1
# [5] = tested on: lungs of pups from IL-1β-treated dams; assay: Lung histology (alveoli count, architecture) at PT15; type: in vivo, mice; conditions: for damages to lung architecture caused by IL-1β: histology
# Description: One-way ANOVA compared to IL-1β+Veh. *p<0.05, ***p<0.001. Sham (n=6 pups), IL-1β (n=3 pups), IL-1β+Compound 1 (n=6 pups), IL-1β+Kin (n=8 pups).
# as §2
# The effect of gestational inflammation on the development of the exposed fetuses was studied. At post-term day (PT) 15, the pups from IL-1β-treated dams were sacrificed, and histological analysis of major organs known to be affected by prematurity/gestational inflammation (the lung, the intestines and the brain) was performed. For the lung, a blind count of alveoli was performed using ImageJ.
Compound,levels of gut IL-6 [1],neonatal survival at birth [2],atrophies in intestinal crypts of the ileum [3],number of resident lymph nodes in the colon [3],size of resident lymph nodes in the colon [3],"levels of all cytokines tested (IL-1β, IL-6, IL-8, PGF2α) in neonatal lungs [4]",damages to lung architecture caused by IL-1β [5],alveoli count per mm^2 ([5]; pups from IL-1β-treated dams),increased IL-1β and IL-8 in neonatal intestines [1],IL-1β-induced growth arrest of fetuses ([2]; caesarean section of dams after 24 h exposition to intrauterine IL-1β),"reducing neonatal death, inflammation and inflammation-mediated damages in neonatal organs, compared with Kineret ([2]; summary statement)",number of alveoli per mm^2 compared with Kineret-treated group ([5]; pups from IL-1β-treated dams)
"Kineret: recombinant form of the human interleukin-1 receptor antagonist (IL-1Ra), purchased from Swedish Orphan Biovitrum AB",not observed,"but not Kineret®, significantly increased neonatal survival",not observed,not increased at statistically significant levels,significant increase,only effective at significantly decreasing lung IL-1β levels,a more modest effect,only partially restored the alveoli count,,,,
CC(C)C[C@@H](NC(=O)[C@@H](CCC(=O)O)NC(=O)[C@H](NC(=O)[C@H](NC(=O)[C@@H](Cc1ccc(O)cc1)NC(=O)[C@H](N)CCCNC(=N)N)C(C)O)C(C)C)C(=O)N[C@H](C)C(N)=O (stereo partly drawn) [compound 1] (H-[dR][dY][dThr(3ξ)][dV][dE][dL][dA]-NH2),clear trend toward decreased levels,significantly increased neonatal survival,not observed,prevented,prevented,significant reduction,prevents the damages to lung architecture,completely restored the alveoli count,alleviated this effect,prevents this detrimental effect,significantly more effective,significantly higher
